Test results published in patent US11542266B1, “Substituted piperidines as BTK inhibitors” (HAISCO PHARMACEUTICALS PTE. LTD., priority 2019, dated 2023).

Key:
Mino cells = experiment: Inhibition of cell proliferation, Mino cells (Cell Viability Assay, 72 h); type: cell-based, human; conditions: Homo sapiens
Summary of the method: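 RPMI1640 + 10% FBS cultures seeded at 20000/well (SU-DHL-4) or 5000/well (Mino, SU-DHL-6), exposed to compound dilutions in triplicate for 72 h at 37 °C, 5% CO2, DMSO vehicle control. Viability read by luminescent reagent; IC50 from dose-response and Max inhi. % = (1 − T72 treated/T72 vehicle)×100 at top concentration.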

SU-DHL-4 cells = experiment: Inhibition of cell proliferation, SU-DHL-4 cells (Cell Viability Assay, 72 h); type: cell-based, human; conditions: Homo sapiens
Procedure: (§1) SU-DHL-4, Mino, and SU-DHL-6 cells, in the culture medium of RPMI1640+10% FBS, were cultured in an incubator at 37° C. under 5% CO2. Cells were plated in a 96-well plate. Specifically, SU-DHL-4 cells were at 20000/well, Mino and SU-DHL-6 cells were at 5000/well, with 90 μL/well. 10 μL of the compounds at different concentrations were added to each well. There were 3 replicate wells for each concentration, and the last column, added with DMSO, was used as a vehicle control group. The cultures were continued for 72 hours at 37° C. under 5% CO2. After 72 hours, 100 μL of detection reagent (Cell Viability Assay, Promega, G7573) was added to each well, and the cultures were uniformly mixed for 2 minutes, and incubated at room temperature for 10 minutes. The fluorescence signal value was measured with a microplate reader (PHERAstar FSX). The IC50 value of the compound on cell proliferation inhibition was calculated using Origin 9.2 software, and the inhibition rate at the highest concentration of the compound (Max inhi. %) was calculated according to formula (1). Max inhi. %=(1-T72 administration/T72 vehicle)×100 Formula (1).

[1] = Pharmacokinetic experiment in rats (i.g. vehicle DMSO/Solutol/PEG-400/SBE-β-CD); type: in vivo; conditions: Sprague-Dawley (SD), rat, plasma, po, male SD rats; for bioavailability: i.g. 20 mg/kg (DMSO/Solutol/PEG-400/SBE-β-CD) vs i.v. 5 mg/kg; for AUC(0-t): i.g. 20 mg/kg, vehicle 5% DMSO + 5% Solutol + 30% PEG-400 + 60% (20%SBE-β-CD)
Procedure: (§2) Objective: In this experiment, a single dose of each test compound was administered to SD rats intravenously and intragastrically, the concentrations of the test compound in plasma of rats were measured, and the pharmacokinetic characteristics and bioavailability of the test compound in rats were evaluated.
Experimental animals: Male SD rats, 200-250 g, 6-8 weeks old, 6 rats/compound. The experimental animals were purchased from CHENGDU DOSSY EXPERIMENTAL ANIMALS CO., LTD.
(§3) Experimental method: On the day of the experiment, 6 SD rats were randomly grouped according to their body weight. The animals were fasted with water available for 12 to 14 hours one day before the administration of a test compound, and were fed 4 hours after the administration.
Sampling: Before and after the administration, 0.1 mL of blood was taken from the orbit of the rats under isoflurane anesthesia, and placed in an EDTAK2 centrifuge tube. Centrifugation was carried out at 5000 rpm at 4° C. for 10 min and the plasma was collected.
Time points for plasma collection in G1 group: 0, 5 min, 15 min, 30 min, 1 h, 2 h, 4 h, 6 h, 8 h, and 24 h.
Time points for plasma collection in G2 group: 0, 15 min, 30 min, 1 h, 2 h, 4 h, 6 h, 8 h, and 24 h.
(§4) Before analysis and detection, all samples were stored at −80° C. The samples were analyzed quantitatively by LC-MS/MS.

SU-DHL-6 cells = experiment: Inhibition of cell proliferation, SU-DHL-6 cells (Cell Viability Assay, 72 h); type: cell-based; conditions: Homo sapiens
Procedure: as §1

[2] = Pharmacokinetic experiment in rats (i.g. vehicle 0.5% MC); type: in vivo; conditions: Sprague-Dawley (SD), rat, plasma, po, male SD rats; for bioavailability: i.g. 20 mg/kg (0.5% MC) vs i.v. 5 mg/kg; for AUC(0-t): i.g. 20 mg/kg, vehicle 0.5% MC, read-out: AUC0-t
Procedure: as §2
Experimental animals: Male SD rats, 200-250 g, 6-8 weeks old, 6 rats/test compound. The experimental animals were purchased from CHENGDU DOSSY EXPERIMENTAL ANIMALS CO., LTD.
as §3
Sampling: Before and after the administration, 0.1 ml of blood was taken from the orbit of the rats under isoflurane anesthesia, and placed in an EDTAK2 centrifuge tube. Centrifugation was carried out at 5000 rpm at 4° C. for 10 min and the plasma was collected.
Time points for plasma collection in G1 group: 0, 5 m, 15 m, 30 m, 1 h, 2 h, 4 h, 6 h, 8 h, and 24 h.
Time points for plasma collection in G2 group: 0, 15 m, 30 m, 1 h, 2 h, 4 h, 6 h, 8 h, and 24 h.
as §4

TMD-8 cells = experiment: Inhibition of cell proliferation, TMD-8 cells (Cell Viability Assay, 72 h); type: cell-based; conditions: Homo sapiens, TMD8
Procedure: (§5) OCI-LY10 and TMD-8 cells, in the culture medium of RPMI1640+10% FBS, were cultured in an incubator at 37° C. under 5% CO2. Cells were plated in a 96-well plate. Specifically, OCI-LY10 cells were at 10000/well, and TMD-8 cells were at 8000/well, with 90 μL/well. These cells were cultured at 37° C. under 5% CO2 overnight. On the next day, 10 μL of the compounds at different concentrations were added to each well. There were 3 replicate wells for each concentration, and the last column, added with DMSO, was used as a vehicle control group. The cultures were continued for 72 hours at 37° C. under 5% CO2. After 72 hours, 50 μL of detection reagent (Cell Viability Assay, Promega, G7573) was added to each well, and the cultures were uniformly mixed for 2 minutes, and incubated at room temperature for 10 minutes. The fluorescence signal value was measured with an Envision2104 plate reader (PerkinElmer). The inhibition rate was calculated using formula (2), wherein RLUcompound was the readout of the drug treated group, RLUcontrol was the average value of the vehicle control group, and RLUblank was the average value of the cell-free wells. The IC50 value was calculated using GraphPad Prism software. IR (%)=(1−(RLUcompound-RLUblank)/(RLUcontrol-RLUblank))*100% formula (2)

OCI-LY10 cells = experiment: Inhibition of cell proliferation, OCI-LY10 cells (Cell Viability Assay, 72 h); type: cell-based; conditions: Homo sapiens
Procedure: as §5

BTK protein = BTK protein (Mus musculus (Mouse), UniProt P35991); experiment: Detection of BTK protein degradation in spleen of mice; type: in vivo; conditions: po, 72 h, female ICR mice, 3 consecutive days of intragastric administration, read-out: DD50 value of compounds on BTK protein degradation in spleen of mice
BTK protein, sequence (P35991 whole entry): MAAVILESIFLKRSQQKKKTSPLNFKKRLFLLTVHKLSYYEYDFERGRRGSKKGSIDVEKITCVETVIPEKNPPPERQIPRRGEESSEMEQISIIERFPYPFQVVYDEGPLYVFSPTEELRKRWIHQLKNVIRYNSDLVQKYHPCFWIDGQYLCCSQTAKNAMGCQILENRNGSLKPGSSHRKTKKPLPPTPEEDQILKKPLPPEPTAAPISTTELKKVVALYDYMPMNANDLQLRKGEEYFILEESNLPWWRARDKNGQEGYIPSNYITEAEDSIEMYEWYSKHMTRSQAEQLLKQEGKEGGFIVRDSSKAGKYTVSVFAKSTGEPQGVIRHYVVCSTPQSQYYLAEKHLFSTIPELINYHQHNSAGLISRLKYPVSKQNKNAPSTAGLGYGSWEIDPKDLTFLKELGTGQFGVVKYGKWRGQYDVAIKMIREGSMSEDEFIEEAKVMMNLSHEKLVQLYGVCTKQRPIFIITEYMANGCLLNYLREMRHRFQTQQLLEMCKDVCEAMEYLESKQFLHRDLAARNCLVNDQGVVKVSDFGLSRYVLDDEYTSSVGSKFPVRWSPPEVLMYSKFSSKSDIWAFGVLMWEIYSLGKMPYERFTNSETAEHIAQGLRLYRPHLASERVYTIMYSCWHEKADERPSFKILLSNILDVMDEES
Procedure: Female ICR mice, 6-8 weeks old, were purchased from BEIJING VITAL RIVER LABORATORY ANIMAL TECHNOLOGY CO., LTD, and the experiment was started after 3 days of adaptation. After 3 consecutive days of intragastric administration of different doses of the compound, the spleen of mice was taken, the spleen cells were collected, and RIPA lysis buffer (Beyotime, Cat. P0013B) was added. The cells were lysed on ice for 15 minutes, and centrifuged at 12000 rpm at 4° C. for 10 minutes. The protein sample of the supernatant was collected, and the protein was quantified by using the BCA kit (Beyotime, Cat. P0009), and then the protein was diluted to 0.25 mg/mL. The expressions of BTK (CST, Cat. 8547S) and the internal reference β-actin (CST, Cat. 3700S) were detected using a fully automated western blot quantitative analyzer (Proteinsimple). The expression level of BTK relative to the internal reference was calculated using Compass software, and the DD50 value was calculated using Origen9.2 software according to formula (4). Specifically, the BTKadministration denoted the expression level of BTK in administration groups at different doses, and the BTKvehicle denoted the expression level of BTK in the vehicle control group. BTK %=BTKadministration/BTKvehicle×100 formula (4)

Row | SMILES | IC50 (Mino cells) | IC50 (SU-DHL-4 cells) | bioavailability [1] | AUC(0-t) [1] | IC50 (SU-DHL-6 cells) | bioavailability [2] | IC50 (TMD-8 cells) | IC50 (OCI-LY10 cells) | AUC(0-t) [2] | ED50 (BTK protein)
1 | Nc1ncnc2c1c(-c1ccc(Oc3ccccc3)cc1)nn2[C@H]1CCN(C2CN(C3CN(c4ccc5c(c4)C(=O)N(C4CCC(=O)NC4=O)C5=O)C3)C2)C[C@@H]1F (stereo partly drawn) [Compound 43, 5-[3-[3-[(3S,4S)-4-[4-amino-3-(4-phenoxyphenyl)pyrazolo[3,4-d]pyrimidin-1-yl]-3-fluoro-1-piperidyl]azetidin-1-yl]azetidin-1-yl]-2-(2,6-dioxo-3-piperidyl)isoindoline-1,3-dione] | 10 nM | 330 nM | 11 ± 2.2% | 4500 ± 886 ng·h/mL | 407 nM | – | – | – | – | –
2 | Nc1ncnc2c1c(-c1ccc(Oc3ccccc3)cc1)nn2[C@@H]1CCCN(C(=O)c2cn(CCOCCOCCOCCNc3cccc4c3C(=O)N(C3CCC(=O)NC3=O)C4=O)nn2)C1 (stereo partly shown) [Compound P13I, reference compound] | 844 nM | 1180 nM | 0% | – | 1640 nM | 0% | 104 nM | 29 nM | – | –
3 | Nc1ncnc2c1c(-c1ccc(Oc3ccccc3)cc1)nn2C1CCN(C2CN(C3CN(c4ccc5c(c4)C(=O)N(C4CCC(=O)NC4=O)C5=O)C3)C2)CC1F (stereo not drawn) [Compound 19-1, trans-5-(3-(4-(4-amino-3-(4-phenoxyphenyl)-1H-pyrazolo[3,4-d]pyrimidin-1-yl)-3-fluoropiperidin-1-yl)-[1,3′-biazetidin]-1′-yl)-2-(2,6-dioxopiperidin-3-yl)isoindoline-1,3-dione] | – | 394 nM | – | – | – | – | 14 nM | 23 nM | 1260 ± 117 ng·h/mL | –
4 | Nc1ncnc2c1c(-c1ccc(Oc3ccccc3)cc1)nn2[C@H]1CCN(C2CCN(C3CN(c4ccc5c(c4)C(=O)N(C4CCC(=O)NC4=O)C5=O)C3)CC2)C[C@@H]1F (stereo partly drawn) [Compound 44, 5-(3-((3S,4S)-4-(4-amino-3-(4-phenoxyphenyl)-1H-pyrazolo[3,4-d]pyrimidin-1-yl)-3-fluoro-[1,4′-bipiperidin]-1′-yl)azetidin-1-yl)-2-(2,6-dioxopiperidin-3-yl)isoindoline-1,3-dione] | 15 nM | – | 5.73 ± 0.64% | 877 ± 98 ng·h/mL | – | – | – | – | – | –
5 | Nc1ncnc2c1c(-c1ccc(Oc3ccccc3)cc1)nn2[C@@H]1CCN(C2CN(C3CN(c4ccc5c(c4)C(=O)N(C4CCC(=O)NC4=O)C5=O)C3)C2)C[C@H]1F (stereo partly drawn) [Compound 39, 5-(3-((3R,4R)-4-(4-amino-3-(4-phenoxyphenyl)-1H-pyrazolo[3,4-d]pyrimidin-1-yl)-3-fluoropiperidin-1-yl)-[1,3′-biazetidin]-1′-yl)-2-(2,6-dioxopiperidin-3-yl)isoindoline-1,3-dione] | 41 nM | – | 9.1 ± 1.5% | 2830 ± 474 ng·h/mL | – | – | – | – | – | –
6 | Nc1ncnc2c1c(-c1ccc(Oc3ccccc3)cc1)nn2[C@@H]1CCN(C2CN(C3CN(c4ccc5c(c4)C(=O)N(C4CCC(=O)NC4=O)C5=O)C3)C2)C[C@@H]1F (stereo partly drawn) [Compound 38, 5-[3-[3-[(3S,4R)-4-[4-amino-3-(4-phenoxyphenyl)pyrazolo[3,4-d]pyrimidin-1-yl]-3-fluoro-1-piperidyl]azetidin-1-yl]azetidin-1-yl]-2-(2,6-dioxo-3-piperidyl)isoindoline-1,3-dione] | 81 nM | 469 nM | 13.3 ± 5.2% | 7260 ± 2860 ng·h/mL | 888 nM | – | – | – | – | –
7 | Nc1ncnc2c1c(-c1ccc(Oc3ccccc3)cc1)nn2C1CCN(C2CCN(C3CN(c4ccc5c(c4)C(=O)N(C4CCC(=O)NC4=O)C5=O)C3)CC2)CC1 (stereo not shown) [Compound 8, 5-(3-(4-(4-amino-3-(4-phenoxyphenyl)-1H-pyrazolo[3,4-d]pyrimidin-1-yl)-[1,4′-bipiperidin]-1′-yl)azetidin-1-yl)-2-(2,6-dioxopiperidin-3-yl)isoindoline-1,3-dione tritrifluoroacetate] | 309 nM | 255 nM | – | – | 399 nM | 11.8 ± 4.4% | 22 nM | 3 nM | 634 ± 238 ng·h/mL | –
8 | Nc1ncnc2c1c(-c1ccc(Oc3ccccc3)cc1)nn2C1CCN(C2CCN(C3CN(c4ccc5c(c4)C(=O)N(C4CCC(=O)NC4=O)C5=O)C3)CC2)CC1 (stereo not shown) [Compound 8-1, 5-(3-(4-(4-amino-3-(4-phenoxyphenyl)-1H-pyrazolo[3,4-d]pyrimidin-1-yl)-[1,4′-bipiperidin]-1′-yl)azetidin-1-yl)-2-(2,6-dioxopiperidin-3-yl)isoindoline-1,3-dione] | – | – | – | – | – | – | – | – | – | 3.8 mg/kg
9 | Nc1ncnc2c1c(-c1ccc(Oc3ccccc3)cc1)nn2[C@H]1CCN(C2CN(C3CN(c4ccc5c(c4)C(=O)N(C4CCC(=O)NC4=O)C5=O)C3)C2)C[C@H]1F (stereo partly drawn) [Compound 41, 5-(3-((3R,4S)-4-(4-amino-3-(4-phenoxyphenyl)-1H-pyrazolo[3,4-d]pyrimidin-1-yl)-3-fluoropiperidin-1-yl)-[1,3′-biazetidin]-1′-yl)-2-(2,6-dioxopiperidin-3-yl)isoindoline-1,3-dione] | 10.3 nM | 329 nM | 10.8 ± 1.5% | 7910 ± 1100 ng·h/mL | 670 nM | – | – | – | – | –
